The target in the assay is T1, Human CYP8B1 (Homo sapiens, UniProt Q9UNU6).
T1 sequence (Q9UNU6 1-501): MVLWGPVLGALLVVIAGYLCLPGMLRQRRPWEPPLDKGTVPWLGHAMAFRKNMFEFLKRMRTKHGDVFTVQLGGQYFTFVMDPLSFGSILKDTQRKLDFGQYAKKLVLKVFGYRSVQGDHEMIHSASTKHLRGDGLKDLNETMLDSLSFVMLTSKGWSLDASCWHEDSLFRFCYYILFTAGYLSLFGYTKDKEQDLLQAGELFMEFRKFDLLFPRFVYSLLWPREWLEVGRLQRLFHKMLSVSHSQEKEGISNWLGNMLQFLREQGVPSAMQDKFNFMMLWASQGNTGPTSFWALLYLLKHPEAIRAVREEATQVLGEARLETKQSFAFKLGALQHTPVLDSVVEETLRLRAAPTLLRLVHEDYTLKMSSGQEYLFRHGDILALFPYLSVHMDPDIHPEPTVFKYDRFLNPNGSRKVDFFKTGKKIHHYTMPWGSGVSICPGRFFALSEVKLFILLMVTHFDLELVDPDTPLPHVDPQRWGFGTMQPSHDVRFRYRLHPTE
Description: Human CYP8B1 Liver Microsome Assay. The following applies: Human CYP8B1 IC50, human liver microsomes; substrate 7a-hydroxy-4-cholesten-3-one, NADPH; RapidFire MS detection of 7α,12α-dihydroxy-4-cholesten-3-one.
With `COc1cccc2c(N3CC[C@H](C(=O)N4CCn5c(nnc5C(F)(F)F)C4)[C@H](C)C3)c(C#N)cnc12` [Example 11, 8-methoxy-4-[(3S,4S)-3-methyl-4-{[3-(trifluoromethyl)-5,6-dihydro[1,2,4]triazolo[4,3-a]pyrazin-7(8H)-yl]carbonyl}piperidin-1-yl]quinoline-3-carbonitrile], inhibition was half-maximal at 2.5 nM (IC50). As to `COc1ccc2c(N3CC[C@H](C(=O)N4CCn5c(nnc5C(F)(F)F)C4)[C@H](C)C3)c(C#N)cnc2c1F` [Example 2, 8-fluoro-7-methoxy-4-[(3S,4S)-3-methyl-4-{[3-(trifluoromethyl)-5,6-dihydro[1,2,4]triazolo[4,3-a]pyrazin-7(8H)-yl]carbonyl}piperidin-1-yl]quinoline-3-carbonitrile], the 50% inhibitory concentration (IC50) stood at 0.96 nM. The value for `N#Cc1cnc2cc(OCC3CC3)ccc2c1N1CCC(C(=O)N2CCn3c(nnc3C(F)(F)F)C2)CC1` [Example 68, 7-(cyclopropylmethoxy)-4-(4-{[3-(trifluoromethyl)-5,6-dihydro[1,2,4]triazolo[4,3-a]pyrazin-7(8H)-yl]carbonyl}piperidin-1-yl)quinoline-3-carbonitrile] was 0.43 nM; that for `N#Cc1cnc2ccc(Cl)cc2c1N1CC[C@H](C(=O)N2CCn3c(nnc3C(F)(F)F)C2)[C@H](C2CC2)C1` [Example 76c, 6-chloro-4-[(3S,4S)-3-cyclopropyl-4-{[3-(trifluoromethyl)-5,6-dihydro[1,2,4]triazolo[4,3-a]pyrazin-7(8H)-yl]carbonyl}piperidin-1-yl]quinoline-3-carbonitrile] was 0.29 nM. `COc1ccc2c(N3CC[C@H](C(=O)N4Cc5nnc(C(F)(F)F)n5C(C)(C)C4)[C@H](C)C3)c(C#N)cnc2c1F` [Example 82, 4-((3S,4S)-4-(5,5-dimethyl-3-(trifluoromethyl)-5,6,7,8-tetrahydro-[1,2,4]triazolo[4,3-a]pyrazine-7-carbonyl)-3-methylpiperidin-1-yl)-8-fluoro-7-methoxyquinoline-3-carbonitrile] displayed an IC50 of 58 nM. Then `C[C@@H]1CN(c2c(C#N)cnc3c(F)c(F)ccc23)CC[C@@H]1C(=O)N1CCn2c(nnc2C(F)(F)F)C1` [Example 8, 7,8-difluoro-4-[(3S,4S)-3-methyl-4-{[3-(trifluoromethyl)-5,6-dihydro[1,2,4]triazolo[4,3-a]pyrazin-7(8H)-yl]carbonyl}piperidin-1-yl]quinoline-3-carbonitrile], with 1.3 nM. Consider `COc1ccc2c(N3C[C@@H](C)N(C(=O)N4CCn5c(nnc5C(F)(F)F)C4)[C@H](C)C3)c(C#N)cnc2c1` [Example 83a, 4-((3R,5R)-3,5-dimethyl-4-(3-(trifluoromethyl)-5,6,7,8-tetrahydro-[1,2,4]triazolo[4,3-a]pyrazine-7-carbonyl)piperazin-1-yl)-7-methoxyquinoline-3-carbonitrile], for which the 50% inhibitory concentration (IC50) stood at 11.3 nM. The value for `C[C@@H]1CN(c2c(C#N)cnc3c2CCN(C(=O)OC2(C)CC2)C3)CC[C@@H]1C(=O)N1CCn2c(nnc2C2CC2)C1` [Example 85, 1-methylcyclopropyl 3-cyano-4-((3S,4S)-4-(3-cyclopropyl-5,6,7,8-tetrahydro-[1,2,4]triazolo[4,3-a]pyrazine-7-carbonyl)-3-methylpiperidin-1-yl)-5,6-dihydro-1,7-naphthyridine-7(8H)-carboxylate] was 2 nM. The value for `COc1ccc2c(N3C[C@@H](C)N(C(=O)N4CCn5c(nnc5C(F)(F)F)C4)[C@@H](C)C3)c(C#N)cnc2c1` [Example 83b, 4-((3S,5R)-3,5-dimethyl-4-(3-(trifluoromethyl)-5,6,7,8-tetrahydro-[1,2,4]triazolo[4,3-a]pyrazine-7-carbonyl)piperazin-1-yl)-7-methoxyquinoline-3-carbonitrile] was 987 nM; that for `C[C@@H]1CN(c2c(C#N)cnc3c(F)cc(C4CCC4)cc23)CC[C@@H]1C(=O)N1CCn2c(nnc2C(F)(F)F)C1` [Example 87, 6-cyclobutyl-8-fluoro-4-((3S,4S)-3-methyl-4-(3-(trifluoromethyl)-5,6,7,8-tetrahydro-[1,2,4]triazolo[4,3-a]pyrazine-7-carbonyl)piperidin-1-yl) quinoline-3-carbonitrile] was 0.3 nM. On to `N#Cc1cnc2ccc(Cl)cc2c1N1CC[C@]2(C(=O)N3CCn4c(nnc4C(F)(F)F)C3)C[C@@H]2C1` (single isomer, unassigned) [Example 81a], for which 1290 nM corresponded to half-maximal inhibition (IC50). `C[C@@H]1CN(c2c(C#N)cnc3cccnc23)CC[C@@H]1C(=O)N1CCn2c(nnc2C(F)(F)F)C1` [Example 33, 4-[(3S,4S)-3-methyl-4-{[3-(trifluoromethyl)-5,6-dihydro[1,2,4]triazolo[4,3-a]pyrazin-7(8H)-yl]carobnyl}piperidin-1-yl]-1,5-naphthyridine-3-carbonitrile] returned an IC50 of 1.3 nM.

With `C[C@@H]1CN(c2c(C#N)cnc3cc(O)ccc23)CC[C@@H]1C(=O)N1CCn2c(nnc2C(F)(F)F)C1` [Example 5, 7-hydroxy-4-[(3S,4S)-3-methyl-4-{[3-(trifluoromethyl)-5,6-dihydro[1,2,4]triazolo[4,3-a]pyrazin-7(8H)-yl]carbonyl}piperidin-1-yl]quinoline-3-carbonitrile], the 50% inhibitory concentration (IC50) worked out at 1.4 nM. In the case of `COc1ccc2c(N3CCC(C(=O)N4CCn5c(nnc5C(F)(F)F)C4)CC3)c(C#N)cnc2c1` [Example 44, 7-methoxy-4-(4-{[3-(trifluoromethyl)-5,6-dihydro[1,2,4]triazolo[4,3-a]pyrazin-7(8H)-yl]carbonyl}piperidin-1-yl)quinoline-3-carbonitrile], 32 nM corresponded to half-maximal inhibition (IC50). The compound `CC1CC(C(=O)N2CCn3c(nnc3C(F)(F)F)C2)CCN1c1c(C#N)cnc2ccc(Cl)cc12` (single isomer, unassigned) [Example 73c, 6-chloro-4-[(2R,4S) or (2S,4R)-2-methyl-4-{[3-(trifluoromethyl)-5,6-dihydro[1,2,4]triazolo[4,3-a]pyrazin-7(8H)-yl]carbonyl}piperidin-1-yl]quinoline-3-carbonitrile] came in with an IC50 of 16 nM. As for `CC[C@@H]1CN(c2c(C#N)cnc3c(F)c(OC)ccc23)CC[C@@H]1C(=O)N1CCn2c(nnc2C(F)(F)F)C1` [Example 74b, 4-[(3S,4S)-3-ethyl-4-{[3-(trifluoromethyl)-5,6-dihydro[1,2,4]triazolo[4,3-a]pyrazin-7(8H)-yl]carbonyl}piperidin-1-yl]-8-fluoro-7-methoxyquinoline-3-carbonitrile], the IC50 was determined as 2.1 nM.

Turning to `C[C@@H]1CN(c2c(C#N)cnc3ccccc23)CC[C@@H]1C(=O)N1CCn2c(nnc2C(F)(F)F)C1` [Example 79, 4-[(3S,4S)-3-methyl-4-{[3-(trifluoromethyl)-5,6-dihydro[1,2,4]triazolo[4,3-a]pyrazin-7(8H)-yl]carbonyl}piperidin-1-yl]quinoline-3-carbonitrile], the IC50 is 1.6 nM. For `CC[C@@H]1CN(c2c(C#N)cnc3ccc(Cl)cc23)CC[C@@H]1C(=O)N1CCn2c(nnc2C(F)(F)F)C1` [Example 75b, 6-chloro-4-[(3S,4S)-3-ethyl-4-{[3-(trifluoromethyl)-5,6-dihydro[1,2,4]triazolo[4,3-a]pyrazin-7(8H)-yl]carbonyl}piperidin-1-yl]quinoline-3-carbonitrile], the IC50 came to 2.8 nM.

The values are drawn from patent publication US10414774B2, “Compound useful for altering the levels of bile acids for the treatment of diabetes and cardiometabolc disease” (Merck Sharp & Dohme Corp., priority 2016, dated 2019).
